Measured values from patent US11117888B2, “Irreversible inhibitors of pyruvate kinase M2 and the use thereof” (China Medical University, priority 2020, dated 2021).

Legend:
[1] = tested on: H157 lung cancer cells; experiment: MTT cell viability assay, H157; format: cell-based; settings: Homo sapiens, NCI-H157, H157 (wild type EGFR), 24 hours
From the text: Cell lines, cell culture, biochemical reagents, and antibodies. MiaPaCa-2, AsPC-1, and Panc-1 human pancreatic cancer cells, MCF-7 and MDA-MB-231 breast cancer cells, SCC4 and SCC2059 oral cancer cells, PC-3 and LNCaP prostate cancer cells, H157, H460, H1975, PC-9 and H1650 lung cancer cells were obtained from the American Type Culture Collection (ATCC, Manassas, Va.). All these cells were maintained in recommended growth medium (RPMI 1640 or DMEM) supplemented with 10% fetal bovine serum (FBS) (Invitrogen, Carlsbad, Calif., USA) and antibiotics at 37° C. in a humidified incubator containing 5% CO2. For SILAC experiments, PC-9 cells were grown in SILAC DMEM medium (Thermo Fisher) supplemented with 10% dialyzed FBS and 100 μg/mL each of unlabeled L-arginine and L-lysine (light medium) or ^13C/^15N stable isotope-labeled L-arginine and L-lysine (heavy medium). […]
Cell viability assays. Drug effects on cell viability was assessed by 3-(4,5-dimethylthiazol-2-yl)-2,5-diphenyltetrazolium bromide ([…]) assays. […] The medium was then removed from each well and replaced with DMSO to dissolve the reduced MTT dye for subsequent colorimetric measurement of absorbance at 560 nm. Cell viabilities are expressed as percentages of viable cells relative to the corresponding vehicle-treated control group.

[2] = tested on: pyruvate kinase activity in PC-9 cells; experiment: Pyruvate kinase activity assay in PC-9 cells; format: cell-based, human; settings: 0.25 μM, 6 hours, relative to vehicle control
Method: Pyruvate kinase activity assays. PC-9 cells were seeded into 6 cm dishes at a concentration of 5×10^5 cells/mL. After 24 hours, cells were treated with 0.25 μM compound 1 or DMSO for 6 hours. The pyruvate kinase activity of compound 1-treated PC-9 and vehicle control cells was measured by using a commercial colorimetric assay kit from BioVision (Milpitas, Calif., USA) according to the manufacturer's protocol. In addition, to verify the specificity of compound 1 toward PKM2 versus PKM1, the inhibition of the kinase activity of recombinant PKM1 (SRP0415, Sigma-Aldrich) and recombinant PKM2 (SAE0021, Sigma-Aldrich) by compound 1 was conducted using the aforementioned assay kit.

[3] = molecular target: PKM2 (Homo sapiens, UniProt P14618); experiment: Covalent adduct formation with recombinant PKM2 (anti-compound 1 antibodies, nanoLC-MS/MS site mapping); format: binding; design: made in house
PKM2, sequence (P14618 whole entry): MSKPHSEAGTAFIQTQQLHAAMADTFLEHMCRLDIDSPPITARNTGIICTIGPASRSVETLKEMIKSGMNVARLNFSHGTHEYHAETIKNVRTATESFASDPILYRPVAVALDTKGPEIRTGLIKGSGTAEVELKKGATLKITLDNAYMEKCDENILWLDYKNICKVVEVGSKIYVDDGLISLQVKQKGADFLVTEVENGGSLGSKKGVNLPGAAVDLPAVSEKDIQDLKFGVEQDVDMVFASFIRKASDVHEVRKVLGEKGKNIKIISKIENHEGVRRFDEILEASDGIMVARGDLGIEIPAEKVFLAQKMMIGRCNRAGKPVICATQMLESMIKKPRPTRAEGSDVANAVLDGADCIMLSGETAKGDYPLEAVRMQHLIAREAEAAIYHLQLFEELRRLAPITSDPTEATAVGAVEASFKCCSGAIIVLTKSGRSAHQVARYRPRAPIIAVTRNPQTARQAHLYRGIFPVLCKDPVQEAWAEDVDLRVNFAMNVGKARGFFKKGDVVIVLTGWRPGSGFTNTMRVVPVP
Method: As this cell-based kinase assay could not rule out the involvement of PKM1, we examined the abilities of compound 1 to inhibit the kinase activity of recombinant PKM2 (SAE0021, Sigma-Aldrich) versus recombinant PKM1 (SRP0415, Sigma-Aldrich) using a commercial PKM assay kit. […] In brief, PC-9 cells were exposed to different concentrations of compound 2 in the presence of compound 1 (1 μM) for 1 hour, lysed, and the cell lysates were treated with biotin-azide, followed by streptavidin bead pulldown under the aforementioned conditions. […] The antigen of compound 1 was prepared by coupling this small molecule with cysteine residues of ovalbumin, which was then used for immunization in guinea pigs.
Preparation of anti-compound 1 antiserum. compound 1 was coupled to the cysteine thiolate in ovalbumin (OVA) via the propiolyl moiety under alkaline conditions by using the modifications to a published method. […]
As PKM2 has a total of 10 cysteine residues (NCBI reference sequence: NM_002654), we conducted proteomic analysis to identify which cysteine residues were covalently modified by compound 1. […] In general, the modification site assignment was considered reliable if the b and y ions flanking the implicated site could be detected, with mass shifts corresponding to a compound 1-modified cysteine (+516.1773 Da). […]

## C#CC(=O)Nc1ccc(-n2nc(CCC(=O)NC)cc2-c2ccc(-c3ccc(C(F)(F)F)cc3)cc2)cc1 [compound 1, N-(4-(3-(3-(Methylamino)-3-oxopropyl)-5-(4′-(trifluoromethyl)-[1,1′-biphenyl]-4-yl)-1H-pyrazol-1-yl)phenyl)propiolamide]
[1]
  IC50: > 2 µM
[2]
  pyruvate kinase activity in cells: significantly reduced pyruvate kinase activity
[3]; Western blot, 4° C. for 6 hours
  covalent adduct with recombinant PKM2 (anti-compound 1 antibodies): antibodies cross reacted with compound 1-treated PKM2
[3]; tryptic digestion, nanoLC-MS/MS
  cysteine residues of PKM2 covalently modified: covalently coupled to the two cysteine residues Cys317 and Cys326
